Here are results for 31 molecules from patent US20250154105A1, “POLYCYCLIC COMPOUND AND USE THEREOF” (TYK MEDICINES, INC., priority 2021, published 2025).

In assay [1] the test system is human pleural mesothelioma cells NCI-H226. Briefly: Cell anti-proliferation experiment (CCK8), NCI-H226. The assay is classed as cell-based. From the text:
TEST EXAMPLE 1 CELL ANTI-PROLIFERATION EXPERIMENT
Determination of proliferation inhibition of YAP-TEAD inhibitor compounds on human pleural mesothelioma cells NCI-H226
Experimental materials and equipments: Human pleural mesothelioma cells NCI-H226 was purchased from NANJING COBIOER BIOSCIENCES CO., LTD. RPMI-1640 medium (Bio-Channel), DMSO (dimethyl sulfoxide), CCK8 (WST-8) Cell Assay Kit (Beyotime), 0.25% EDTA-Tripsin (trypsin digest), 1×PBS (phosphate buffer, PH7.2), 96-well plate (Corning), fetal bovine serum (FBS), 10,000 U/mL penicillin-G/streptomycin, high-speed freezing centrifuge (EPPENDORF 5810R), enzyme-linked immunosorbent assay (Tecan Spark).
1. Cell plating • A) Tumor cells were cultured to 80-90% density in RPMI-1640 (containing 10% FBS and 100 U/mL penicillin-G/streptomycin) under the condition of 37° C., 5% CO2 and saturated humidity. • B) The culture medium was removed from the 10 cm culture dish. • C) Cells were washed with 10 ml 1×PBS. • D) 4 ml of 0.25% EDTA-Tripsin was added to digest pancreatin for 5 minutes in an incubator at 37° C. and 5% CO2. Then the mixture was transferred to a 15 ml centrifuge tube, and centrifuged for 5 minutes at 200 g. The supernatant was discarded to obtain cell precipitation. • E) The cell precipitation was resuspended with 4 ml of […], counted and adjusted to 10,000 cells/ml. • F) The cell suspension was added to a 96-well plate with a volume of 100 μL per well and cultured overnight in an incubator at 37° C. and 5% CO2.
• Compound dilution • A) Preparation of gradient dilution solutions of the tested compounds: the tested compounds was configured to 1 mM stock solution. Then […] of stock solution was dissolved in 1.5 ml of DMSO-free culture solution, and then 3-fold continuous gradient dilution with 0.1% DMSO culture solution was performed to get a total of 9 concentrations. The diluted concentrations of the compound were as follows: 333.33 nM, 111.11 nM, 37.03 nM, 12.35 nM, 4.15 nM, 1.37 nM, 0.46 nM, 0.15 nM • B) After full mixing, 100 μL of culture compound solution was taken to replace the culture solution in the cell culture plate, with 4 duplicated wells at each concentration; • C) The cells were transferred to the incubator to incubate for 3 days.
• A) the cell culture plate was taken out and added with 10 μl of CCK-8 (WST-8) solution per well in the biosafety cabinet; • B) The cell culture plate was put back into the incubator and continued to incubate for 3 hours; • C) 450 nm wavelength was selected to measure absorbance value on TECAN enzyme linked immunosorbent assay detector.
The following formula was used to calculate the cell viability (% Cell Viability); • Cell Viability (%)=[A(Drug-added)-A(Blank)]/[A(0 Drug-added)-A(blank)][…] • A (Drug-added): The absorbance of wells containing cells, CCK8 solution, and drug solution. • A (Blank): The absorbance of wells containing culture medium and CCK8 solution, but without cells. • A (0 Drug-added): The absorbance of wells containing cells, CCK8 solution, but without drug solution. • Cell viability: Cell proliferation viability or cytotoxicity viability was determined by the IC50 value obtained by curve fitting using GraphPad Prism 8 software.

A further assay relates to YAP-TEAD. Briefly: YAP-TEAD inhibitor activity by Nano luciferase method (8xGTiiC-nLuc reporter in 293T cells). Type of assay: cell-based. As to conditions: Homo sapiens, HEK-293T, 48 hours incubation, read-out: Nano-luciferase detection (IC50). The text has this:
EXAMPLE 2: YAP-TEAD INHIBITOR ACTIVITY WAS DETECTED BY NANO LUCIFERASE METHOD
(1) Experimental materials and equipments: 293T cells were purchased from NANJING COBIOER BIOSCIENCES CO., LTD. DMEM medium (High sugar, no phenol red, Bio-Channel), DMSO (dimethyl sulfoxide), Lipo6000™ transfection reagent (Beyotime), pGL3B-8xGTiiC-nLuc-CMV-fLuc plasmid, 0.25% EDTA-Tripsin (trypsin digest), 1×PBS (phosphate buffer, PH7.2), 96-well white cell culture plate (PerkinElmer), fetal bovine serum (FBS), 10,000 U/mL penicillin-G/streptomycin, high-speed freezing centrifuge (EPPENDORF 5810R), 37° C. CO2 incubator, Vi-cell® Cell Counter, Envision Microplate Reader (PerkinElmer).
The revived 293T cells were inoculated into a 10 cm culture dish and placed in an incubator with 5% CO2, and cultured at constant temperature of 37° C. To ensure transfection efficiency, cells at logarithmic phase (cell density of approximately 50%-70%) should be used.
On the day before transfection, cells at the logarithmic phase were digested with Trypsin-EDTA, and culture medium was added to terminate digestion. The cell suspension was prepared by blowing and mixing using a pipette.
Cell concentration was measured using Vi-cell, and the cell suspension was diluted to a suspension of 5*10^^5 cells per milliliter. After preparing the cell suspension, the suspension was gently mixed. 10 ml of liquid was added to a 10 cm culture dish. In this way, the number of cells in each 10 cm culture dish was 5*10^^6. The cells were incubated at a constant temperature of 37° C. for 1 day in an incubator with 5% CO2.
Two clean and sterile centrifuge tubes were taken and added with 750 μL opti-MEM Medium without antibiotics and serum, respectively. Then one tube was added with 15 μg Plasmid (pGL3B-8xGTiiC-nLuc-CMV-fLuc), and gently blew and mixed well using a pipette; the other tube was added with Lipo6000 transfection reagent, and gently blew and mixed using a pipette. After standing at room temperature for 5 minutes, the culture solution containing DNA was added gently to the culture solution containing Lipo6000 transfection reagent, and mixed well by gently inverting the centrifuge tube, then standing at room temperature for 5 minutes.
The above mixture was added evenly to a 10 cm culture dish and replaced with fresh complete culture medium after 6 hours of cultivation.
After transfection for 1 day, cells were digested with Trypsin EDTA, and culture medium was added to terminate the digestion. The cell suspension was prepared by blowing and mixing using a pipette.
Cell concentration was measured using Vi-cell, and the cell suspension was diluted to a suspension of 20000 cells per milliliter.
After preparing the cell suspension, the suspension was gently mixed, and added to 96-well plate with 100 μL per well. Thus, the density of the cells to be tested is 2000 cells per well.
The inoculated cell culture plate was placed in the incubator for cultivation, and after about 24 hour, compounds with concentration gradient were added.
10 mM compound stock solution was diluted with culture medium to 50 μM. Compound solution of 50 μM was added to the third column of the deep well plate, 216 μL of culture medium containing 0.5% DMSO was added to the fourth to eleventh columns, successively.
Gradient dilution: taking 100 μL of solution from the third column and adding the solution to the fourth column and mixing well; then taking 100 µL of solution from the fourth column again and adding the solution to the fifth column, repeating this operation until the eleventh column.
Taking 25 μL of compound solution from the deep well plate and adding it to a 96-well culture plate using a multi-channel pipette. Repeating four times on the 96 well plate for each compound. Finally, a concentration gradient of 1:3.16 was formed in the 96-well plate with a maximum concentration of 10,000 nM. The • (5) Addition of Nano Luciferase Detection Reagent and Read […]

For the molecule `O=C(O)c1ccc2c(ccc(=O)n2-c2ccc(C(F)(F)F)cc2)c1` [Example T-1], the IC50 (in assay [1]; in the assay on YAP-TEAD) was 1000 to 5000 nM each time. As for `CC(C)NC(=O)c1ccc2c(ccc(=O)n2-c2ccc(C(F)(F)F)cc2)c1` [Example T-3], the IC50 (in assay [1]; in the assay with YAP-TEAD) was not above 1000 nM in each case. For the molecule `CC(C)(C)OC(=O)c1ccc2c(c1)c(=O)ccn2-c1ccc(C(F)(F)F)cc1` [Example T-4], in the assay on YAP-TEAD, the half-maximal inhibitory concentration (IC50) was 1000 to 5000 nM. Take `O=C(O)c1ccc2c(c1)c(=O)ccn2-c1ccc(C(F)(F)F)cc1` [Example T-5]: the IC50 in assay [1] was 1000 to 5000 nM; in the assay on YAP-TEAD it was not above 1000 nM. On the same counts, the results for `CC(C)NC(=O)c1ccc2c(c1)c(=O)ccn2-c1ccc(C(F)(F)F)cc1` [Example T-6] are not above 1000 nM and not above 1000 nM. The like results for `CNS(=O)(=O)c1ccc2c(c1)-c1ncn(C)c1CN2c1ccc(C(F)(F)F)cc1` [Example T-7] were, in that order, not above 1000 nM and not above 1000 nM. As to `CNS(=O)(=O)c1ccc2c(c1)c1ncn(C)c1c(=O)n2-c1ccc(C(F)(F)F)cc1` [Example T-15], the IC50 (in assay [1]; in the assay with YAP-TEAD) was not above 1000 nM in each case.

For `COC[C@H](C)NC(=O)c1ccc2c(c1)-c1ncn(C)c1CN2c1ccc(C(F)(F)F)cc1` [Example T-16], the half-maximal inhibitory concentration (IC50) (in assay [1]; in the assay on YAP-TEAD) was not above 1000 nM each time. For the molecule `C[C@H](NC(=O)c1ccc2c(c1)c(=O)ccn2-c1ccc(C(F)(F)F)cc1)c1ccccn1` [Example T-17], the IC50 was 1000 to 5000 nM in assay [1] and not above 1000 nM with YAP-TEAD. On the same counts, the results for `CNS(=O)(=O)c1ccc2c(c1)-c1nn(C)cc1CN2c1ccc(C(F)(F)F)cc1` [Example T-18] are not above 1000 nM and not above 1000 nM. On the same counts, the results for `CNS(=O)(=O)c1ccc2c(c1)-c1cn(C)nc1CN2c1ccc(C(F)(F)F)cc1` [Example T-19] are not above 1000 nM and not above 1000 nM. The like results for `CNS(=O)(=O)c1ccc2c(c1)c1ncn(CCOC)c1c(=O)n2-c1ccc(C(F)(F)F)cc1` [Example T-20] were, in that order, not above 1000 nM and not above 1000 nM.

For the molecule `N#CC1CN(C(=O)c2ccc3c(ccc(=O)n3-c3ccc(C(F)(F)F)cc3)c2)C1` [Example T-21], the IC50 (in assay [1]; in the assay on YAP-TEAD) was 1000 to 5000 nM throughout.

For the molecule `O=C(c1ccc2c(ccc(=O)n2-c2ccc(C(F)(F)F)cc2)c1)N1CC(O)C1` [Example T-22], the 50% inhibitory concentration (IC50) (in assay [1]; in the assay on YAP-TEAD) was 1000 to 5000 nM throughout. On to `C[C@@H](NC(=O)c1ccc2c(ccc(=O)n2-c2ccc(C(F)(F)F)cc2)c1)c1ccccn1` [Example T-24], for which the IC50 (in assay [1]; in the assay with YAP-TEAD) was 1000 to 5000 nM each time. With `COC[C@@H](C)NC(=O)c1ccc2c(c1)c(=O)ccn2-c1ccc(C(F)(F)F)cc1` [Example T-36], in the assay on YAP-TEAD, the IC50 is 1000 to 5000 nM.

In the case of `O=C(c1ccc2c(c1)c(=O)ccn2-c1ccc(C(F)(F)F)cc1)N1CC(O)C1` [Example T-37], in the assay with YAP-TEAD, the 50% inhibitory concentration (IC50) is 1000 to 5000 nM. In assay [1], `Cn1cc2c(=O)n(-c3ccc(C(F)(F)F)cc3)c3ccc(C(=O)N4CC(O)C4)cc3c2n1` [Example T-103] displayed an IC50 of 1000 to 5000 nM. Molecule `Cn1cc2c(=O)n(-c3ccc(C(F)(F)F)cc3)c3ccc(C(=O)N4CC(C#N)C4)cc3c2n1` [Example T-104] showed a 50% inhibitory concentration (IC50) in assay [1] of 1000 to 5000 nM. `C[C@@H](NC(=O)c1ccc2c(c1)c1nn(C)cc1c(=O)n2-c1ccc(C(F)(F)F)cc1)c1ccccn1` [Example T-106] displayed a 50% inhibitory concentration (IC50) in assay [1] of 1000 to 5000 nM.

On to `CN(C)C(=O)c1ccc2c(c1)c1nn(C)cc1c(=O)n2-c1ccc(C(F)(F)F)cc1` [Example T-112], for which the half-inhibitory concentration (IC50) in assay [1] was 1000 to 5000 nM. `COC[C@@H](C)NC(=O)c1ccc2c(c1)c1nn(C)cc1c(=O)n2-c1ccc(C(F)(F)F)cc1` [Example T-119] came in with an IC50 in assay [1] of 1000 to 5000 nM. On the same count and under the same terms, under `C[C@H](NC(=O)c1ccc2c(c1)c1nn(C)cc1c(=O)n2-c1ccc(C(F)(F)F)cc1)c1ccncc1` [Example T-147] stands 1000 to 5000 nM. With `C[C@H](NC(=O)c1ccc2c(c1)c1c(c(=O)n2-c2ccc(C(F)(F)F)cc2)CC(F)CC1)c1ccccn1` (stereo partly drawn) [Example T-304], in the assay with YAP-TEAD, the half-inhibitory concentration (IC50) was not above 1000 nM. As for `C[C@H](NC(=O)c1ccc2c(c1)c1c(c(=O)n2-c2ccc(C(F)(F)F)cc2)C(F)CCC1)c1ccccn1` (stereo partly drawn) [Example T-305], the IC50 with YAP-TEAD is not above 1000 nM. As to `C[C@H](NC(=O)c1ccc2c(c1)c1c(c(=O)n2-c2ccc(C(F)(F)F)cc2)CC(F)(F)CC1)c1ccccn1` [Example T-308], in the assay with YAP-TEAD, the half-maximal inhibitory concentration (IC50) is not above 1000 nM. As for `C[C@H](NC(=O)c1ccc2c(c1)c1c(c(=O)n2-c2ccc(C(F)(F)F)cc2)C(F)(F)CCC1)c1ccccn1` [Example T-309], in the assay with YAP-TEAD, the IC50 is not above 1000 nM. Regarding `CC1OCc2c1c(=O)n(-c1ccc(C(F)(F)F)cc1)c1ncc(C(=O)N[C@@H](C)c3ccccn3)cc21` (stereo partly drawn) [Example T-438], the IC50 with YAP-TEAD is 1000 to 5000 nM.

On to `CCS(=O)(=O)Nc1ccc2c(c1)c(C)cc(=O)n2-c1ccc(C(F)(F)F)cc1` [Example T-442], for which the IC50 in the assay on YAP-TEAD is not above 1000 nM. Still for that read-out and setting: the same measure for `CC(=O)Nc1ccc2c(c1)c(C)cc(=O)n2-c1ccc(C(F)(F)F)cc1` [Example T-444]: 1000 to 5000 nM; for `Cc1cc2cc(C(=O)N[C@@H](C)c3cccc(N)n3)cnc2n(-c2ccc(C(F)(F)F)cc2)c1=O` [Example T-461]: not above 1000 nM.
